Here are results for 22 molecules from patent publication US12065430B2, “Indazole compound or salt thereof” (TAIHO PHARMACEUTICAL CO., LTD., priority 2018, dated 2024).

The structures appear in SMILES notation.

In the assay the target is G12C K-Ras4B (1-169) (Homo sapiens (Human), UniProt P01116, G12C). As to the kind of experiment: Test of compounds on whether to bind to KRASG12C (LC-MS compound binding rate). The note with it: final compound concentration of 2 μM, 1 μM protein, 25° C. for 2 hours. An outline of the steps: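 K-Ras4B (1-169) WT and G12C (1 μM each, mixed) in 1×TBS, 0.1 mM TCEP incubated with compound (final 2 μM) 2 h at 25° C; quenched with 0.2% formic acid. Intact-protein LC-MS (ESI+, deconvoluted); binding rate = adduct signal/(adduct + unbound signal), giving selectivity over WT.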
Sequence of G12C K-Ras4B (1-169) (P01116 other isoform, or with tags, fused parts or gaps G12C): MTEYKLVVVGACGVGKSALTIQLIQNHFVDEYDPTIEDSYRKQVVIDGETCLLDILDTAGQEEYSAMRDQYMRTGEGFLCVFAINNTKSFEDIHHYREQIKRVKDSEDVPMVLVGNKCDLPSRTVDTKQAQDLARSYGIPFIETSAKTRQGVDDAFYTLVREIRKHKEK
In the case of `C=CC(=O)N1CC(NC(=O)c2c(-c3ccccc3)nc(CNc3n[nH]c4cc(Cl)c(C(C)(C)C)cc34)n2C)C1` [Reference Example 3, N-(1-acryloylazetidin-3-yl)-2-(((5-(tert-butyl)-6-chloro-1H-indazol-3-yl)amino)methyl)-1-methyl-4-phenyl-1H-imidazole-5-carboxamide, reference compound], the “binding rate for G12C K-Ras4B (1-169)” value is “E (a binding rate of less than 20% is rated “E.”)”. The value for `C=CC(=O)N1CC(NC(=O)c2c(C)c(CNc3n[nH]c4cc(Cl)c(C(C)(C)C)cc34)nn2C)C1` [Example 10, N-(1-acryloylazetidin-3-yl)-3-(((5-(tert-butyl)-6-chloro-1H-indazol-3-yl)amino)methyl)-1,4-dimethyl-1H-pyrazole-5-carboxamide] was “B (a binding rate of 60% or more and less than 80% is rated “B,”)”; that for `C=CC(=O)N1CC(N(C)C(=O)c2c(C)nc(CNc3n[nH]c4cc(Cl)c(C(C)(C)C)cc34)n2C)C1` [Example 49, N-(1-acryloylazetidin-3-yl)-2-(((5-(tert-butyl)-6-chloro-1H-indazol-3-yl)amino)methyl)-N,1,4-trimethyl-1H-imidazole-5-carboxamide] was “C (a binding rate of 40% or more and less than 60% is rated “C,”)”. The value for `C=CC(=O)N1CC(NC(=O)c2c(C)nc(CNc3n[nH]c4cc(Cl)c(C(C)(C)C)cc34)n2C)C(F)(F)C1` (stereo not shown) [Example 53, N-(1-acryloyl-4,4-difluoropyrrolidin-3-yl)-2-(((5-(tert-butyl)-6-chloro-1H-indazol-3-yl)amino)methyl)-1,4-dimethyl-1H-imidazole-5-carboxamide] was “B (a binding rate of 60% or more and less than 80% is rated “B,”)”; that for `Cc1nc(CNc2n[nH]c3cc(Cl)c(C(C)(C)C)cc23)n(C(C)C)c1C(=O)NC1CN(C(=O)/C=C\Cl)C1` [Example 83, (Z)-2-(((5-(tert-butyl)-6-chloro-1H-indazol-3-yl)amino)methyl)-N-(1-(3-chloroacryloyl)azetidin-3-yl)-1-isopropyl-4-methyl-1H-imidazole-5-carboxamide] was “D (a binding rate of 20% or more and less than 40% is rated “D,”)”. Turning to `C=CC(=O)N1CC(NC(=O)c2c(Cl)c(CNc3n[nH]c4cc(Cl)c(C(C)(C)C)cc34)nn2C)C1` [Example 6, N-(1-acryloylazetidin-3-yl)-3-(((5-(tert-butyl)-6-chloro-1H-indazol-3-yl)amino)methyl)-4-chloro-1-methyl-1H-pyrazole-5-carboxamide], the “binding rate for G12C K-Ras4B (1-169)” value is “B (a binding rate of 60% or more and less than 80% is rated “B,”)”.

Regarding `C=CC(=O)N1CC(NC(=O)c2sc(CNc3n[nH]c4cc(Cl)c(C(C)(C)C)cc34)nc2C)C1` [Example 2, N-(1-acryloylazetidin-3-yl)-2-(((5-(tert-butyl)-6-chloro-1H-indazol-3-yl)amino)methyl)-4-methylthiazole-5-carboxamide], the “binding rate for G12C K-Ras4B (1-169)” value was “B (a binding rate of 60% or more and less than 80% is rated “B,”)”.

For the molecule `Cc1nc(CNc2n[nH]c3cc(Cl)c(C(C)(C)C)cc23)n(C)c1C(=O)NC1CN(C(=O)/C=C/CN(C)C)C1` [Example 80, (E)-2-(((5-(tert-butyl)-6-chloro-1H-indazol-3-yl)amino)methyl)-N-(1-(4-(dimethylamino)but-2-enoyl)azetidin-3-yl)-1,4-dimethyl-1H-imidazole-5-carboxamide], the “binding rate for G12C K-Ras4B (1-169)” value was “C (a binding rate of 40% or more and less than 60% is rated “C,”)”.

Take `C=CC(=O)N1CC(NC(=O)c2c(Br)nc(CNc3n[nH]c4cc(Cl)c(C(C)(C)C)cc34)n2C)C1` [Example 27, N-(1-acryloylazetidin-3-yl)-4-bromo-2-(((5-(tert-butyl)-6-chloro-1H-indazol-3-yl)amino)methyl)-1-methyl-1H-imidazole-5-carboxamide]: the “binding rate for G12C K-Ras4B (1-169)” value is given as “A (a binding rate of 80% or more is rated “A,”)”. The value for `C=CC(=O)N1CC(NC(=O)c2c(Cl)nc(CNc3n[nH]c4cc(Cl)c(C(C)(C)C)cc34)n2[C@@H]2CCN(C3CC3)C2)C1` [Example 120, (R)—N-(1-acryloylazetidin-3-yl)-2-(((5-(tert-butyl)-6-chloro-1H-indazol-3-yl)amino)methyl)-4-chloro-1-(1-cyclopropylpyrrolidin-3-yl)-1H-imidazole-5-carboxamide] was “A (a binding rate of 80% or more is rated “A,”)”. The value for `C=CC(=O)N1CC(NC(=O)c2cnc(CNc3n[nH]c4cc(Cl)c(C(C)(C)C)cc34)n2C)C1` [Example 1, N-(1-acryloylazetidin-3-yl)-2-(((5-(tert-butyl)-6-chloro-1H-indazol-3-yl)amino)methyl)-1-methyl-1H-imidazole-5-carboxamide] was “A (a binding rate of 80% or more is rated “A,”)”; that for `C=CC(=O)N1CC(NC(=O)c2csc(CNc3n[nH]c4cc(Cl)c(C(C)(C)C)cc34)n2)C1` [Example 7, N-(1-acryloylazetidin-3-yl)-2-(((5-(tert-butyl)-6-chloro-1H-indazol-3-yl)amino)methyl)thiazole-4-carboxamide] was “D (a binding rate of 20% or more and less than 40% is rated “D,”)”.

As to `C=CC(=O)N1C[C@H](NC(=O)c2c(C)nc(CNc3n[nH]c4cc(Cl)c(C(C)(C)C)cc34)n2C)[C@H](OC)C1` [Example 61, N-((3S,4R)-1-acryloyl-4-methoxypyrrolidin-3-yl)-2-(((5-(tert-butyl)-6-chloro-1H-indazol-3-yl)amino)methyl)-1,4-dimethyl-1H-imidazole-5-carboxamide], the “binding rate for G12C K-Ras4B (1-169)” value is “B (a binding rate of 60% or more and less than 80% is rated “B,”)”. The value for `C=CC(=O)N1CC(NC(=O)c2c(Cl)nc(CNc3n[nH]c4cc(Cl)c(C(C)(C)C)cc34)n2[C@H]2CCN(CC(F)F)C2)C1` [Example 115, (S)—N-(1-acryloylazetidin-3-yl)-2-(((5-(tert-butyl)-6-chloro-1H-indazol-3-yl)amino)methyl)-4-chloro-1-(1-(2,2-difluoroethyl)pyrrolidin-3-yl)-1H-imidazole-5-carboxamide] was “A (a binding rate of 80% or more is rated “A,”)”; that for `C=CC(=O)NC1CN(C(=O)c2c(C)nc(CNc3n[nH]c4cc(Cl)c(C(C)(C)C)cc34)n2C)C1` [Example 46, N-(1-(2-(((5-(tert-butyl)-6-chloro-1H-indazol-3-yl)amino)methyl)-1,4-dimethyl-1H-imidazole-5-carbonyl)azetidin-3-yl) acrylamide] was “B (a binding rate of 60% or more and less than 80% is rated “B,”)”. The value for `C=CC(=O)N1CC(NC(=O)c2c(Cl)nc(CNc3n[nH]c4cc(Cl)c(C(C)(C)C)cc34)n2CCCC)C1` [Example 87, N-(1-acryloylazetidin-3-yl)-1-butyl-2-(((5-(tert-butyl)-6-chloro-1H-indazol-3-yl)amino)methyl)-4-chloro-1H-imidazole-5-carboxamide] was “A (a binding rate of 80% or more is rated “A,”)”; that for `C=CC(=O)N1CC(NC(=O)c2c(Cl)nc(CNc3n[nH]c4cc(Cl)c(C(C)(C)C)cc34)n2[C@H]2CCN(C(C)C)C2)C1` [Example 116, (S)—N-(1-acryloylazetidin-3-yl)-2-(((5-(tert-butyl)-6-chloro-1H-indazol-3-yl)amino)methyl)-4-chloro-1-(1-isopropylpyrrolidin-3-yl)-1H-imidazole-5-carboxamide] was “B (a binding rate of 60% or more and less than 80% is rated “B,”)”; that for `COC/C=C/C(=O)N1CC(NC(=O)c2c(C)nc(CNc3n[nH]c4cc(Cl)c(C(C)(C)C)cc34)n2C(C)C)C1` [Example 85, (E)-2-(((5-(tert-butyl)-6-chloro-1H-indazol-3-yl)amino)methyl)-1-isopropyl-N-(1-(4-methoxybut-2-enoyl)azetidin-3-yl)-4-methyl-1H-imidazole-5-carboxamide] was “C (a binding rate of 40% or more and less than 60% is rated “C,”)”.

On to `C=CC(=O)N1C[C@@H](CN(C)C)[C@@H](NC(=O)c2c(C)nc(CNc3n[nH]c4cc(Cl)c(C(C)(C)C)cc34)n2C)C1` [Example 68, N-((3R,4R)-1-acryloyl-4-((dimethylamino)methyl)pyrrolidin-3-yl)-2-(((5-(tert-butyl)-6-chloro-1H-indazol-3-yl)amino)methyl)-1,4-dimethyl-1H-imidazole-5-carboxamide], for which the “binding rate for G12C K-Ras4B (1-169)” value is “C (a binding rate of 40% or more and less than 60% is rated “C,”)”. Next, `C=CC(=O)N1CC(NC(=O)c2c(C)nc(CNc3n[nH]c4cc(C)c(C(C)(C)C)cc34)n2C)C1` [Example 41, N-(1-acryloylazetidin-3-yl)-2-(((5-(tert-butyl)-6-methyl-1H-indazol-3-yl)amino)methyl)-1,4-dimethyl-1H-imidazole-5-carboxamide]: “A (a binding rate of 80% or more is rated “A,”)”. Next, `CC(C)n1c(CNc2n[nH]c3cc(Cl)c(C(C)(C)C)cc23)nc(C(F)F)c1C(=O)NC1CN(C(=O)/C=C/CN(C)C)C1` [Example 84, (E)-2-(((5-(tert-butyl)-6-chloro-1H-indazol-3-yl)amino)methyl)-4-(difluoromethyl)-N-(1-(4-(dimethylamino)but-2-enoyl)azetidin-3-yl)-1-isopropyl-1H-imidazole-5-carboxamide]: “C (a binding rate of 40% or more and less than 60% is rated “C,”)”; `C=CC(=O)N1CC(NC(=O)c2c(C)nc(CNc3n[nH]c4cc(Cl)c(C(C)(C)C)cc34)n2CC(F)(F)F)C1` [Example 22, N-(1-acryloylazetidin-3-yl)-2-(((5-(tert-butyl)-6-chloro-1H-indazol-3-yl)amino)methyl)-4-methyl-1-(2,2,2-trifluoroethyl)-1H-imidazole-5-carboxamide]: “B (a binding rate of 60% or more and less than 80% is rated “B,”)”.
